This note sets out measurements from ChEMBL document CHEMBL4477164, “Domino Synthesis of Embelin Derivatives with Antibacterial Activity” (2016).

The source made the active and inactive calls. The calls are words filed in the database; no cut-off is given here.

For assay [1], the system named is Escherichia coli. Kind of assay: Antibacterial activity against Escherichia coli assessed as bacterial growth inhibition after 24 hrs by broth dilution method. Type of assay: functional, organism-based. (Dilution methods test growth across graded concentrations, often in twofold steps.)
Assay [2] has as its system Staphylococcus aureus. Kind of assay: Antibacterial activity against vancomycin/methicillin-sensitive Staphylococcus aureus ATCC 25923 assessed as bacterial growth inhibition after 24 hrs by broth dilution method. The following applies: ATCC 25923, 24 h. The class given is functional.
In assay [3] the test system is Staphylococcus aureus. Kind of assay: Antibacterial activity against vancomycin-intermediate/methicillin-resistant Staphylococcus aureus NRS402 assessed as bacterial growth inhibition after 24 hrs by broth dilution method. Type of assay: functional. To be noted: NRS402, 24 h.
Assay [4] concerns Pseudomonas aeruginosa. Kind of assay: Antibacterial activity against Pseudomonas aeruginosa assessed as bacterial growth inhibition after 24 hrs by broth dilution method. The class given is functional, organism-based.

In general, MIC refers to the least concentration at which growth counts as inhibited. Consider `CCCCCCCCCCCC1=C(O)C(=O)C2=C(OC(C)(C)[C@@H]3COc4cc(OC)ccc4[C@H]23)C1=O` (relative stereo), for which the result in assay [1] and in assay [4] was inactive. The MIC in assay [2] was 8 µM; in assay [3], 1 µM.

Take `CCCCCCCCCCCC1=C(O)C(=O)C2=C(OC(C)(C)[C@@H]3COc4ccc(OCC=C(C)C)cc4[C@H]23)C1=O` (relative stereo): the result in assay [1] and in assay [4] was inactive. For the same molecule, the MIC in assay [2] and in assay [3] was more than 128 µM in each case.

With `CCCCCCCCCCCC1=C(O)C(=O)C2=C(OC(C)(C)[C@H]3COc4ccc(OCC=C(C)C)cc4[C@H]23)C1=O` (relative stereo), the outcome in assay [1] and in assay [4] was inactive. In addition, the MIC in assay [2] and in assay [3] was more than 128 µM throughout.

On to `CCCCCCCCCCCC1=C(O)C(=O)C2=C(OC(C)(C)[C@@H]3COc4ccc5ccccc5c4[C@H]23)C1=O` (racemic), for which the outcome in assay [1] and in assay [4] was inactive. Besides, the MIC in assay [2] and in assay [3] was more than 128 µM throughout.

With `CCCCCCCCCCCC1=C(O)C(=O)C([C@H]2[C@H](C)CC[C@@H]2C(C)(C)OCC)=C(O)C1=O` (racemic), the outcome in assay [1] and in assay [4] was inactive. Moreover, the MIC in assay [2] and in assay [3] was more than 128 µM each time.

As for `CN[C@H](CC(C)C)C(=O)N[C@H]1C(=O)N[C@@H](CC(N)=O)C(=O)N[C@H]2C(=O)N[C@H]3C(=O)N[C@H](C(=O)N[C@H](C(=O)O)c4cc(O)cc(O)c4-c4cc3ccc4O)[C@H](O)c3ccc(c(Cl)c3)Oc3cc2cc(c3O[C@@H]2O[C@H](CO)[C@@H](O)[C@H](O)[C@H]2O[C@H]2C[C@](C)(N)[C@H](O)[C@H](C)O2)Oc2ccc(cc2Cl)[C@H]1O` [VANCOMYCIN], the MIC in assay [2] was less than 1 µg/mL.

Regarding `CCCCCCCCCCCC1=C(O)C(=O)C2=C(OC(C)(C)[C@@H]3COc4ccc(Br)cc4[C@H]23)C1=O` (relative stereo), the outcome in assay [1] and in assay [4] was inactive. The MIC in assay [2] is 16 µM; in assay [3], 32 µM.

Take `C/C(=C\C(=O)OCCCCCCCCC(=O)O)C[C@@H]1OC[C@H](C[C@@H]2O[C@H]2[C@@H](C)[C@H](C)O)[C@@H](O)[C@H]1O` [MUPIROCIN]: the MIC in assay [2] and in assay [3] was less than 1 µg/mL each time.

As for `CCCCCCCCCCCC1=C(O)C(=O)C2=C(OC(C)(C)[C@H]3COc4ccc(Br)cc4[C@H]23)C1=O` (relative stereo), the result in assay [1] and in assay [4] was inactive. The minimum inhibitory concentration (MIC) in assay [2] was 16 µM; in assay [3], 32 µM.

As to `CCCCCCCCCCCC1=C(O)C(=O)C2=C(OC(C)(C)[C@H]3COc4cc(OC)ccc4[C@H]23)C1=O` (relative stereo), the outcome in assay [1] and in assay [4] was inactive. The MIC in assay [2] worked out at 64 µM; in assay [3], 4 µM.

Consider `CCCCCCCCCCCC1=C(O)C(=O)C=C(O)C1=O` [EMBELIN], for which the outcome in assay [1] and in assay [4] was inactive. For the same molecule, the figures for the MIC in assay [2] and in assay [3] were 32 µM and 16 µM, respectively.

Take `CCCCCCCCCCCC1=C(O)C(=O)C2=C(OC(C)(C)[C@@H]3COc4ccc(Cl)cc4[C@H]23)C1=O` (relative stereo): the outcome in assay [1] and in assay [4] was inactive. Further, the MIC was determined as 4 µM in assay [2] and 1 µM in assay [3].

For the molecule `CCCCCCCCCCCC1=C(O)C(=O)C2=C(OC(C)(C)[C@H]3CC[C@@H](C)[C@H]23)C1=O` (racemic), the outcome in assay [1] and in assay [4] was inactive. Moreover, the MIC in assay [2] was 64 µM; in assay [3], 4 µM.

As to `Cc1onc(-c2ccccc2)c1C(=O)N[C@@H]1C(=O)N2[C@@H]1SC(C)(C)[C@@H]2C(=O)O` [OXACILLIN], the MIC in assay [2] is less than 1 µg/mL; in assay [3] it was more than 128 µg/mL.

As for `CCCCCCCCCCCC1=C(O)C(=O)C2=C(OC(C)(C)[C@H]3CC[C@H](C)C[C@H]23)C1=O`, the result in assay [1] and in assay [4] was inactive. Also, the MIC in assay [2] was 8 µM; in assay [3] it was 1 µM.

As to `CCCCCCCCCCCC1=C(O)C(=O)C2=C(OC(C)(C)[C@H]3COc4ccc(Cl)cc4[C@H]23)C1=O` (relative stereo), the outcome in assay [1] and in assay [4] was inactive. In addition, the MIC in assay [2] was determined as 4 µM; in assay [3], 2 µM.
